Assay results: patent US11529340B2 (priority 2016, dated 2022)
“Also recorded” adds a separate entry of the source. Like-named read-outs stand apart in the source and are kept apart here.

Legend:
[1] = test system: MORs and DORs in CFA-inflamed mice; experiment: Antagonism of Lo-OMI anti-hyperalgesia by opioid antagonists (Hargreaves, CFA); assay type: in vivo; conditions: intraplantar and subcutaneous; β-FNA 24 hours before, others co-administered
[2] = test system: HEK-293 cells transfected with opioid receptors (mu, delta, kappa homomers; mu-delta, mu-kappa, kappa-delta heteromers); experiment: Intracellular calcium release assay (FLIPR); assay type: cell-based; conditions: HEK-293 with chimeric Δ6-Gqi4-myr, opioid receptor homomers and heteromers
Experimental: The target compounds were tested for agonist activity using an intracellular calcium release assay. Briefly, HEK-293 cells were transfected with a chimeric Δ6-Gqi4-myr protein employed to measure intracellular Ca^+2 ion release upon receptor activation. Cells stably expressing the chimeric protein were selected from transiently transfected cells in zeocin-containing medium (DMEM+10% fetal bovine serum+1% penicillin/streptomycin+[…] zeocin). Opioid receptors were transiently transfected using different combinations of DNA for heteromers (mu-delta, mu-kappa, kappa-delta) or for singly expressing homomers (mu, delta, kappa). Intracellular calcium release was measured using a FLIPR calcium kit (Molecular Devices) in a FlexStation3 apparatus. For each compound, concentration-response profiles were established by measuring the fluorescence for 90 seconds after addition of the compound and determining the peak effect (maximum-minimum). A concentration-response curve was plotted for the change in Relative Fluorescence Units (ΔRFU) vs. concentration. The calcium mobilization of the antagonist NTI and partial agonist OMI were studied.

mice [3] = conditions: cited from earlier work
[4] = test system: thermal nociceptive responses in mice; experiment: Hot water tail flick test, intrathecal injection, naive mice; assay type: in vivo
Experimental: Subjects were given an intrathecal injection of loperamide, OMI, or combination, and post-drug response were analyzed as a % of maximum possible effect, which was used to generate dose-response curves.
Thermal nociception was measured either using a warm water tail flick test or using the Hargreaves hindpaw method as described previously (Hargreaves, K. et al., Pain 32: 77-88, 1988). Briefly, animals were placed on a heated glass floor (30° C.) and a small plastic box restricted their movement. After allowing the animals to acclimate to the testing environment for a minimum of 15 minutes, a radiant heat lamp was shone on the left hindpaw until the animal withdrew the paw. Paw withdrawal latencies (PWLs) were measured by an IITC plantar stimulator analgesia meter, and a cutoff time of 20 seconds was used to prevent tissue damage. An average of 3-5 PWLs were taken, with a minimum of 30 seconds between tests.
Data Analysis: The ED50, in nanomoles with 95% confidence limits, of all agonists and combinations were calculated using the graded dose-response curve method of Tallarida and Murray (Tallarida, R. J. and Murray, R. B., Manual of pharmacological calculations with computer programs, pp. 26-31, Springer-Verlag, NY, 1987). […] Isobolographic analyses were performed using the numerical method (Tallarida, Pain 49: 93-97, 1992; Ossipov et al., Anesthesiology 86:1-9 1997). […]

mice [5] = experiment: Naloxone withdrawal jumping protocol (dependence); assay type: in vivo; conditions: for dependence: naloxone-precipitated
Experimental: Morphine, OMI and BOMI were tested for dependence using the naloxone withdrawal jumping protocol (Marshall, I. et al., Br. J. Pharmacol. 1969, 37, 505P-506P; and El-kadi, A. O. et al., General Pharmacology: The Vascular System 1994, 25, 1505-1510). On day one the ED80 dose was injected 3 times per day 4 hours apart using the s.c. route of administration. On day 2 two times ED80 and day 3 and 4 with four times the ED80 were injected at the same times used on day one. On the fifth day each animal received a bolus of the top dose followed three hours later by a single dose of naloxone s.c. (10 or 50 mg/kg) and placed in individual circular Plexiglas observation chambers (6.5″×9″). […] At 10 mg/kg and 50 mg/kg naloxone precipitated withdrawal in the morphine-treated animals with a mean 91.5 jumps and 99.3 jumps, respectively. The average number of jumps for both OMI and BOMI after both doses of naloxone was 1 jump.

[6] = test system: thermal nociceptive responses in naive mice; experiment: Hargreaves assay, naive mice; assay type: in vivo
[7] = test system: light-driven mEPSC frequency in spinal cord slices from Nav1.8-ChR2 mice; experiment: Spinal cord slice electrophysiology: inhibition of 470 nm light-evoked mEPSCs; assay type: cell-based; conditions: increasing concentrations superfused on slice
mice [8] = conditions: intrathecal; cited from earlier work
mice [9] = experiment: In vivo antagonism of OMI and BOMI antinociception by opioid antagonists; conditions: agonist administered intrathecally and intracerebroventricularly
Experimental: FIGS. 1a-1d show antagonism studies of OMI and BOMI (6) in vivo from Example 2.
OMI (Portoghese, P. S., et al., J. Med. Chem. 1990, 33, 1714-20) and BOMI were tested in vivo. […] Oral gavage of OMI and (6) produced the peak antinociceptive effect at 30 minutes; further they were taken in vivo studies in mice and challenged by antagonists such as NTI, norBNI and β-FNA. The results are depicted in FIGS. 1a-1d. […] Therefore, it was concluded that OMI and (6) both are MOR-DOR heteromer-selective agonists.

mice [10] = experiment: Antinociceptive tolerance, day 1 vs day 2 % MPE; assay type: in vivo; conditions: i.t.
Experimental: Eighty percent effective doses of OMI (4) or BOMI (6) were administered either i.c.v. or i.t. once on day 1 and again on day 2 and the % MPE determined on both days.

[11] = test system: CFA-induced hyperalgesia in mice; experiment: Hargreaves assay, CFA-induced inflammatory hyperalgesia; assay type: in vivo; conditions: for ED50: Mus musculus
mice [12] = experiment: Oral gavage antinociception (% MPE) in mice; assay type: in vivo; conditions: for time of peak antinociceptive effect: oral gavage; for % MPE: oral, 5 mg/kg
Experimental: Animals are restrained by the scruff and held upright (vertically) to maintain a straight line from the mouth to the esophagus. Prior to dosing, the distance from the oral cavity to the caudal point of the sternum is gauged with the gavage needle. Using a bulb-tipped gastric gavage needle attached to a 1 mL syringe, the needle is passed along the roof of the animal's mouth and into the esophagus, stopping at the pre-measured distance. The drug is slowly injected and the needle removed. Drugs are administered in a volume of 10 mL/kg.

[13] = test system: SNI-induced allodynia in mice; experiment: Spared nerve injury (SNI)-induced mechanical allodynia, electronic von Frey; conditions: subcutaneous
mice [14] = experiment: Antinociceptive potency (% MPE) after i.t. or i.c.v. administration; assay type: in vivo
Experimental: OMI (4) or BOMI (6) were administered via either i.t. or i.c.v. routes and percent maximum possible antinociception (% MPE) determined at 5 or 10 min post-treatment, respectively.

[15] = naloxone s.c. 10 mg/kg after escalating s.c. dosing
[16] = naloxone s.c. 50 mg/kg after escalating s.c. dosing
[17] = Mus musculus, sc, 0.75 h, subcutaneous, CFA-naive, tested 45 minutes later, read-out: ED50
[18] = intraplantar, naive, tested 15 minutes later
[19] = sc, subcutaneous (systemic), CFA-inflamed, read-out: ED50 (anti-hyperalgesia)
[20] = topical solution on inflamed hindpaw, CFA
[21] = systemic, CFA-inflamed, loperamide + BOMI co-administered, read-out: ED50 of the drug with the other drug (loperamide or BOMI) present
[22] = intraplantar, CFA-inflamed, loperamide + BOMI co-administered

Structure (SMILES): COC(=O)/C=C/C(=O)N[C@@H]1CC[C@@]2(O)[C@H]3Cc4ccc(O)c5c4[C@@]2(CCN3CC2CC2)[C@H]1O5 [β-FNA, beta-funaltrexamine]
- reversal of the anti-hyperalgesic effects of Lo-OMI [1]: significantly reversed the anti-hyperalgesic effects of Lo-OMI in a dose-dependent manner

Structure (SMILES): C=CC[N+]1(C)CC[C@]23c4c5ccc(O)c4O[C@H]2C(=O)CC[C@@]3(O)[C@H]1C5 (stereo partly drawn) [naloxone methiodide]
- reversal of the anti-hyperalgesic effects of Lo-OMI [1]: significantly reversed the anti-hyperalgesic effects of Lo-OMI in a dose-dependent manner; also recorded: completely ablated the behavioral anti-hyperalgesia

Structure (SMILES): Oc1ccc2c3c1O[C@H]1c4[nH]c5ccccc5c4C[C@@]4(O)[C@@H](C2)N(CC2CC2)CC[C@]314 [NTI, naltrindole]
- calcium mobilization profile [2]: devoid of any calcium mobilization; also recorded: did not show calcium mobilization in any cell line tested
- reversal of the anti-hyperalgesic effects of Lo-OMI [1]: significantly reversed the anti-hyperalgesic effects of Lo-OMI in a dose-dependent manner

Structure (SMILES): Clc1cccc(Cl)c1N=C1NCCN1 [clonidine]
- impairment of rotarod performance / motor function (mice [3]; literature or earlier results, route as stated): dose-dependently and fully impairs rotarod performance

Structure (SMILES): C[C@]12N[C@H](Cc3ccccc31)c1ccccc12 [MK801]
- ED50 for reduction in rotarod performance (mice [3]; intrathecal): 11 nmol
- reduction in rotarod performance (mice [3]; intrathecal): 80%

Structure (SMILES): CN1CC[C@]23c4c5ccc(O)c4O[C@H]2c2[nH]c4ccccc4c2C[C@@]3(O)[C@H]1C5 [OMI (4), oxymorphindole]
- ED50 [4]: 3.52 nmol
- calcium mobilization profile [2]: demonstrated a profile of MOR-DOR heteromer selectivity
- calcium mobilization profile ([2]; listed as OMI): selective mobilization in the MOR-DOR co-expressing cell line
- number of jumps in 10 minutes (mean) (mice [5]; [15]): 1 jumps
- number of jumps in 10 minutes (mean) (mice [5]; [16]): 1 jumps
- dependence (mice [5]; listed as OMI): neither OMI nor (6) produced dependence; also recorded: did not create any dependence
- ED50 [6, 17]: 5.13 mg/kg
- ED50 [6, 18]: 33.7 nmol
- inhibition of light-driven mEPSC frequency [7]: inhibited mEPSC frequency in a concentration-dependent manner
- interaction with the MOR agonist morphine (mice [8]): synergized with the MOR agonist morphine
- antagonism by β-FNA (mice [9]): antagonized by β-FNA
- antinociceptive tolerance (mice [10]): neither agent injected i.t. produced antinociceptive tolerance
- antinociceptive tolerance (mice [10]; listed as OMI): did not produce tolerance
- ED50 [11, 19]: 1.12 mg/kg
- ED50 (anti-hyperalgesia) ([11]; intraplantar, CFA-inflamed): 12.3 nmol
- ED50 (anti-hyperalgesia) [11, 20]: 166 µM
- time of peak antinociceptive effect (mice [12]): 30 min
- % MPE (mice [12]; 20 min): 38.0 ± 8.4 % MPE
- % MPE (mice [12]; 30 min): 29.5 ± 4.5 % MPE
- % MPE (mice [12]; 60 min): 38.5 ± 10.7 % MPE
- time of peak anti-allodynia post-injection [13]: 1 h

Structure (SMILES): CN(C)C(=O)C(CCN1CCC(O)(c2ccc(Cl)cc2)CC1)(c1ccccc1)c1ccccc1 [loperamide]
- ED50 [4]: 5.44 nmol
- ED50 [6, 17]: 12.4 mg/kg
- ED50 [6, 18]: 57.2 nmol
- inhibition of light-driven mEPSC frequency [7]: inhibited mEPSC frequency in a concentration-dependent manner
- ED50 [11, 19]: 2.42 mg/kg
- ED50 [11, 21]: 0.06 mg/kg
- ED50 (anti-hyperalgesia) ([11]; intraplantar, CFA-inflamed): 6.37 nmol
- ED50 of the drug when the other drug (loperamide or BOMI) is also present [11, 22]: 0.5 nmol
- ED50 (anti-hyperalgesia) [11, 20]: 227 µM
- time of peak anti-allodynia post-injection [13]: 1 h

Structure (SMILES): CN1CC[C@]23c4c5ccc(O)c4O[C@H]2[C@@H](O)C=C[C@H]3[C@H]1C5 [morphine]
- number of jumps in 10 minutes (mean) (mice [5]; [15]): 91.5 jumps
- number of jumps in 10 minutes (mean) (mice [5]; [16]): 99.3 jumps

Structure (SMILES): CN1CC[C@]23c4c5ccc(O)c4O[C@H]2c2c(c4ccccc4n2Cc2ccccc2)C[C@@]3(O)C1C5 [BOMI (6), (4bS,8aS,14bR)-14-benzyl-7-methyl-5,6,7,8,8a,9,14,14b-octahydro-4,8-methanobenzofuro[2,3-a]pyrido[4,3-b]carbazole-1,8a-diol]
- potency relative to parent compound OMI (4) (mice [14]; i.c.v., % MPE at 10 min): three times more potent
- potency relative to parent compound OMI (4) (mice [14]; i.t., % MPE at 5 min): 20 times
- calcium mobilization profile ([2]; listed as 6): predominantly MOR-DOR heteromer-selective
- calcium mobilization profile ([2]; listed as BOMI): mixed, stimulation of MOR most active
- number of jumps in 10 minutes (mean) (mice [5]; [15]): 1 jumps
- number of jumps in 10 minutes (mean) (mice [5]; [16]): 1 jumps
- dependence (mice [5]; listed as 6): neither OMI nor (6) produced dependence
- dependence (mice [5]; listed as BOMI): did not create any dependence
- antagonism by β-FNA (mice [9]): antagonized by β-FNA; also recorded: antagonism of (6) by β-FNA was more significant
- antinociceptive tolerance (mice [10]): neither agent injected i.t. produced antinociceptive tolerance
- antinociceptive tolerance (mice [10]; listed as 6): did not produce tolerance
- ED50 [11, 19]: 0.08 mg/kg
- ED50 [11, 21]: 0.003 mg/kg
- ED50 (anti-hyperalgesia) ([11]; intraplantar, CFA-inflamed): 0.34 nmol
- ED50 of the drug when the other drug (loperamide or BOMI) is also present [11, 22]: 0.02 nmol
- time of peak antinociceptive effect (mice [12]): 30 min
- % MPE (mice [12]; 20 min): 38.3 ± 10.4 % MPE
- % MPE (mice [12]; 30 min): 19.6 ± 4.8 % MPE
- % MPE (mice [12]; 60 min): 42.8 ± 6.2 % MPE
- % MPE (mice [12]; 120 min): 38.4 ± 8.4 % MPE
